Assay results from patent US11707462B2, “Checkpoint kinase 1 (CHK1) inhibitors and uses thereof” (Boundless Bio, Inc., priority 2021, dated 2023).

Experiments:
p-CHK1 (Ser345) = experiment: AlphaLISA SureFire Ultra p-CHK1 (Ser345) cellular assay in HT29 cells; assay type: cell-based; conditions: Homo sapiens, HT-29, 16 h at 37° C.
Protocol: Example B: AlphaLisa Cellular Assay
Compound activity in cells was measured using an AlphaLISA® SureFire® Ultra™ p-CHK1 (Ser345) assay (Perkin Elmer, catalog no. ALSU-PCHK1-A10K). HT29 cells were cultured in McCoy 5A medium with 10% FBS and 1% penicillin-streptomycin and seeded to 96-well plates (Corning, catalog no. 3599). Compounds were serially diluted in DMSO over a 10-point dose range with 3-fold dilution and to each well containing cells was added compound solution. Plates were centrifuged at 1000 rpm for 30 seconds. Plates were incubated at 37° C. for 16 h. Supernatant was removed by flicking the plate against a paper towel. Wells were washed once with PBS solution. To each well was added freshly prepared lysis buffer and plates were agitated on a plate shaker at 400 rpm for 30 min. The 96-well cell plates were centrifuged at 1500 rpm for 1 minute. From each well was transferred 10 μL of the lysates to a 384-well Optiplate™ (Perkin Elmer, catalog no. 6007290). To each well was added Acceptor Mix (5 μL) and the plates were sealed and wrapped in foil. Plates were agitated on a plate shaker for 2 minutes, then incubated at room temperature for 1 h. To each well was added Donor Mix (5 μL) and the plates were sealed and wrapped in foil. Plates were agitated on a plate shaker for 2 minutes, then incubated at room temperature for 1 h. AlphaLisa signal was read on an EnVision multimode plate reader (Perkin Elmer). Data were fit to dose-response curves using XLfit (IDBS, Surrey, UK) or Prism (GraphPad Software, La Jolla, Calif., US) to calculate IC50 values for each compound tested.

[1] = target: T1, Full-length human Chk1 protein (Homo sapiens, UniProt O14757); experiment: Kinase HTRF biochemical assay (HTRF KinEASE), Chk1 enzyme activity; conditions: full-length human Chk1, ATP 1 mM, 60 minutes at room temperature
T1 construct: purchased Carna Biosciences, Inc. 02-117
T1 sequence (O14757 1-476): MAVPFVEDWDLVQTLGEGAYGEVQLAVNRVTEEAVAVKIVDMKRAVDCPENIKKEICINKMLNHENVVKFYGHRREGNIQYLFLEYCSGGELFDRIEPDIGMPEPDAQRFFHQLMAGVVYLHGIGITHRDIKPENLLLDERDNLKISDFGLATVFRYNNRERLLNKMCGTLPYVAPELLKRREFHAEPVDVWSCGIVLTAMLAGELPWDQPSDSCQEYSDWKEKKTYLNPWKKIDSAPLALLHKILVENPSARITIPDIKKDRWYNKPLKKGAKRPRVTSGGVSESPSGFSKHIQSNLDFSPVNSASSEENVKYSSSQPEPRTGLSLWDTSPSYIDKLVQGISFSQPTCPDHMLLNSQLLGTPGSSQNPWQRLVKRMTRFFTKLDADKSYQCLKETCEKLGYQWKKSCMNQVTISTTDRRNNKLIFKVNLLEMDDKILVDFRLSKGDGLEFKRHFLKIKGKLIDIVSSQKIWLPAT
Protocol: Example A: Kinase HTRF Biochemical Assay
Chk1 enzyme activity was measured using an HTRF KinEASE assay (Cisbio, catalog no. 62ST1PEC). Full-length human Chk1 protein (GenBank accession number NP_001265.1) was obtained from Carna Biosciences, Inc. (Kobe, Japan, catalog no. 02-117). The enzyme reaction was carried out in assay buffer containing (final concentrations): Chk1 enzyme (0.012 ng/μL), MgCl2 (5 mM) and DTT (1 mM). To determine compound dose response, DMSO stock solutions were serially diluted in a 10-point concentration series in duplicate. Compound solution (50 nL) was added to 384-well assay plates (Greiner, catalog no. 784075). To each well containing compound solution was added assay buffer solution (5 μL). Plates were centrifuged at 1000 rpm for 1 minute, then incubated at room temperature for 10 minutes. The reaction was started by addition of substrate buffer (5 μL/well) containing (final concentrations): STK substrate 1-biotin (120 nM) and ATP (1 mM). Assay plates were centrifuged at 1000 rpm for 1 minute, then incubated at room temperature for 60 minutes. The reaction was stopped by addition of detection buffer (Cisbio, 10 μL) containing (final concentrations): STK antibody-cryptate (0.25 nM) and streptavidin-XL665 (7.5 nM). Plates were centrifuged at 1000 rpm for 1 minute, then incubated at 25° C. for 2 hours. HTRF signal was read on an EnVision multimode plate reader […] in HTRF mode. Data were fit to dose-response curves using XLfit (IDBS, Surrey, UK) or Prism (GraphPad Software, La Jolla, Calif., US) to calculate IC50 values for each compound tested.

SMILES	IC50 (p-CHK1 (Ser345)) [nM]	IC50 [1] [nM]
N#Cc1cnc(Nc2cc(-c3ncccc3O[C@@H]3CC[C@@H](N)C3)[nH]n2)cn1 (stereo in doubt) [Example 1-59, 5-((5-(3-(((1R,3R)-3-aminocyclopentyl)oxy)pyridin-2-yl)-1H-pyrazol-3-yl)amino)pyrazine-2-carbonitrile]	> 1000	100 to 500
COc1cccc(O[C@H]2C[C@@H](N)C2)c1-c1cc(Nc2cnc(C#N)cn2)n[nH]1 [Example 1-4, 5-((5-(2-((1s,3s)-3-aminocyclobutoxy)-6-methoxyphenyl)-1H-pyrazol-3-yl)amino)pyrazine-2-carbonitrile]	> 1000	100 to 500
COc1cccc(O[C@H]2C[C@H](N)C2)c1-c1cc(Nc2cnc(C#N)cn2)n[nH]1 [Example 1-5, 5-((5-(2-((1r,3r)-3-aminocyclobutoxy)-6-methoxyphenyl)-1H-pyrazol-3-yl)amino)pyrazine-2-carbonitrile]	≤ 50	≤ 10
N#Cc1cnc(Nc2cc(-c3ccccc3O[C@H]3C[C@H](N)C3)[nH]n2)cn1 [Example 1-9, 5-((5-(2-((1r,3r)-3-aminocyclobutoxy)phenyl)-1H-pyrazol-3-yl)amino)pyrazine-2-carbonitrile]	100 to 500	10 to 100
N#Cc1cnc(Nc2cc(-c3ccccc3O[C@H]3C[C@@H](N)C3)[nH]n2)cn1 [Example 1-10, 5-((5-(2-((1s,3s)-3-aminocyclobutoxy)phenyl)-1H-pyrazol-3-yl)amino)pyrazine-2-carbonitrile]	> 1000	100 to 500
CCOc1cccc(O[C@H]2C[C@H](N)C2)c1-c1cc(Nc2cnc(C#N)cn2)n[nH]1 [Example 1-12, 5-((5-(2-((1r,3r)-3-aminocyclobutoxy)-6-ethoxyphenyl)-1H-pyrazol-3-yl)amino)pyrazine-2-carbonitrile]	100 to 500	≤ 10
N#Cc1cnc(Nc2cc(-c3c(F)cccc3O[C@H]3C[C@H](N)C3)[nH]n2)cn1 [Example 1-13, 5-((5-(2-((1r,3r)-3-aminocyclobutoxy)-6-fluorophenyl)-1H-pyrazol-3-yl)amino)pyrazine-2-carbonitrile]	100 to 500	10 to 100
COc1cc(F)cc(O[C@H]2C[C@H](N)C2)c1-c1cc(Nc2cnc(C#N)cn2)n[nH]1 [Example 1-14, 5-((5-(2-((1r,3r)-3-aminocyclobutoxy)-4-fluoro-6-methoxyphenyl)-1H-pyrazol-3-yl)amino)pyrazine-2-carbonitrile]	≤ 50	≤ 10
CN[C@H]1C[C@H](Oc2cccc(OC)c2-c2cc(Nc3cnc(C#N)cn3)n[nH]2)C1 [Example 1-16, 5-((5-(2-methoxy-6-((1r,3r)-3-(methylamino)cyclobutoxy)phenyl)-1H-pyrazol-3-yl)amino)pyrazine-2-carbonitrile]	≤ 50	10 to 100

Next, values leading:

IC50 (p-CHK1 (Ser345)) [nM]	IC50 [1] [nM]	SMILES
> 1000	100 to 500	N#Cc1cnc(Nc2cc(-c3ccccc3O[C@@H]3CC[C@@H](N)C3)[nH]n2)cn1 (stereo in doubt) [Example 1-37, 5-((5-(2-(((1R,3R)-3-aminocyclopentyl)oxy)phenyl)-1H-pyrazol-3-yl)amino)pyrazine-2-carbonitrile]
50 to 100	≤ 10	COc1cccc(O[C@H]2CC[C@H](N)CC2)c1-c1cc(Nc2cnc(C#N)cn2)n[nH]1 [Example 1-1, 5-((5-(2-(((lr,4r)-4-aminocyclohexyl)oxy)-6-methoxyphenyl)-1H-pyrazol-3-yl)amino)pyrazine-2-carbonitrile]
≤ 50	≤ 10	COc1cccc(O[C@@H]2CC[C@H](N)C2)c1-c1cc(Nc2cnc(C#N)cn2)n[nH]1 [Example 1-7, 5-((5-(2-(((1R,3S)-3-aminocyclopentyl)oxy)-6-methoxyphenyl)-1H-pyrazol-3-yl)amino)pyrazine-2-carbonitrile]
≤ 50	≤ 10	COc1cccc(O[C@@H]2CC[C@@H](N)C2)c1-c1cc(Nc2cnc(C#N)cn2)n[nH]1 [Example 1-8, 5-((5-(2-(((1R,3R)-3-aminocyclopentyl)oxy)-6-methoxyphenyl)-lH-pyrazol-3-yl)amino)pyrazine-2-carbonitrile]
100 to 500	10 to 100	COc1cccc(O[C@H]2CC[C@@H](N)CC2)c1-c1cc(Nc2cnc(C#N)cn2)n[nH]1 [Example 1-11, 5-((5-(2-(((1s,4s)-4-aminocyclohexyl)oxy)-6-methoxyphenyl)-1H-pyrazol-3-yl)amino)pyrazine-2-carbonitrile]
500 to 1000	10 to 100	CCOc1cccc(O[C@H]2CC[C@H](N)CC2)c1-c1cc(Nc2cnc(C#N)cn2)n[nH]1 [Example 1-17, 5-((5-(2-(((1r,4r)-4-aminocyclohexyl)oxy)-6-ethoxyphenyl)-1H-pyrazol-3-yl)amino)pyrazine-2-carbonitrile]
100 to 500	10 to 100	N#Cc1cnc(Nc2cc(-c3c(F)cccc3O[C@H]3CC[C@H](N)CC3)[nH]n2)cn1 [Example 1-19, 5-((5-(2-(((1r,4r)-4-aminocyclohexyl)oxy)-6-fluorophenyl)-1H-pyrazol-3-yl)amino)pyrazine-2-carbonitrile]
100 to 500	10 to 100	COc1c(F)ccc(O[C@H]2CC[C@H](N)CC2)c1-c1cc(Nc2cnc(C#N)cn2)n[nH]1 [Example 1-20, 5-((5-(6-(((1r,4r)-4-aminocyclohexyl)oxy)-3-fluoro-2-methoxyphenyl)-1H-pyrazol-3-yl)amino)pyrazine-2-carbonitrile]
50 to 100	≤ 10	COc1cc(Cl)cc(O[C@H]2CC[C@H](N)CC2)c1-c1cc(Nc2cnc(C#N)cn2)n[nH]1 [Example 1-21, 5-((5-(2-(((1r,4r)-4-aminocyclohexyl)oxy)-4-chloro-6-methoxyphenyl)-1H-pyrazol-3-yl)amino)pyrazine-2-carbonitrile]
100 to 500	10 to 100	N#Cc1cnc(Nc2cc(-c3c(F)cccc3O[C@@H]3CC[C@H](N)C3)[nH]n2)cn1 [Example 1-22, 5-((5-(2-(((1R,3S)-3-aminocyclopentyl)oxy)-6-fluorophenyl)-1H-pyrazol-3-yl)amino)pyrazine-2-carbonitrile]
100 to 500	10 to 100	CCOc1cccc(O[C@@H]2CC[C@H](N)C2)c1-c1cc(Nc2cnc(C#N)cn2)n[nH]1 [Example 1-23, 5-((5-(2-(((1R,3S)-3-aminocyclopentyl)oxy)-6-ethoxyphenyl)-1H-pyrazol-3-yl)amino)pyazine-2-carbonitrile]
50 to 100	10 to 100	COc1c(F)ccc(O[C@@H]2CC[C@H](N)C2)c1-c1cc(Nc2cnc(C#N)cn2)n[nH]1 [Example 1-26, 5-((5-(6-(((1R,3S)-3-aminocyclopentyl)oxy)-3-fluoro-2-methoxyphenyl)-1H-pyrazol-3-yl)amino)pyrazine-2-carbonitrile]
100 to 500	10 to 100	COc1ccc(F)c(O[C@@H]2CC[C@H](N)C2)c1-c1cc(Nc2cnc(C#N)cn2)n[nH]1 [Example 1-27, 5-((5-(2-(((1R,3S)-3-aminocyclopentyl)oxy)-3-fluoro-6-methoxyphenyl)-1H-pyrazol-3-yl)amino)pyrazine-2-carbonitrile]
